Measured values published in ChEMBL document CHEMBL1150152, “Araguspongines K and L, new bioactive bis-1-oxaquinolizidine N-oxide alkaloids from Red Sea specimens of Xestospongia exigua” (J Nat Prod, 2002).
Converted amounts (≈) assume the structure as drawn. The source made the active and inactive calls. The rule behind the calls is not given here.

Legend:
[1] = system: Mycobacterium tuberculosis; assay: Antitubercular activity against Mycobacterium tuberculosis H37Rv by alamar blue assay; type: functional
Plasmodium falciparum [2] = assay: Antimalarial activity against Plasmodium falciparum D6; type: functional, organism-based
Plasmodium falciparum [3] = assay: Antimalarial activity against Plasmodium falciparum W2; type: functional, organism-based

CO[C@H]1/C=C/O[C@@]2(C)Oc3c(C)c(O)c4c(O)c(c(/C=N/N5CCN(C)CC5)c(O)c4c3C2=O)NC(=O)/C(C)=C\C=C\[C@H](C)[C@H](O)[C@@H](C)[C@@H](O)[C@@H](C)[C@H](OC(C)=O)[C@@H]1C [RIFAMPIN]
MIC [1]: 0.61 µM (≈ 0.502 µg/mL)

O[C@]12CCCCCC[C@@H]3CCN4CCC[C@](O)(CCCCCC[C@@H]5CCN(CCC1)[C@H]2O5)[C@@H]4O3
IC50 (Plasmodium falciparum [2]): 0.67 µg/mL (≈ 1.4 µM) | IC50 (Plasmodium falciparum [3]): 0.28 µg/mL (≈ 0.585 µM) | MIC [1]: 3.94 µM (≈ 1.89 µg/mL)

[O-][N+]12CCC[C@]3(O)CCCCCC[C@@H]4CCN5CCC[C@@H](CCCCCC[C@H](CC1)O[C@@H]32)[C@@H]5O4 (stereo not given in full)
Activity (Plasmodium falciparum [2]): inactive | Activity (Plasmodium falciparum [3]): inactive

C[C@@H]1CC[C@H]2[C@@H](C)C(=O)O[C@@H]3O[C@@]4(C)CC[C@@H]1[C@]32OO4 [ARTEMISININ]
IC50 (Plasmodium falciparum [2]): 0.006 µg/mL (≈ 0.0213 µM) | IC50 (Plasmodium falciparum [3]): 0.007 µg/mL (≈ 0.0248 µM)

[O-][N+]12CCC[C@]3(O)CCCCCC[C@@H]4CCN5CCC[C@](O)(CCCCCC[C@H](CC1)O[C@@H]32)[C@@H]5O4 (stereo not given in full)
Activity (Plasmodium falciparum [2]): inactive | Activity (Plasmodium falciparum [3]): inactive
